In PMC9090415, “Discovery of small molecule inhibitors of Plasmodium falciparum apicoplast DNA polymerase” (Journal of Enzyme Inhibition and Medicinal Chemistry, 2022):

Biological target: P. falciparum apicoplast DNA polymerase (Pf-apPOL) (Plasmodium falciparum, UniProt Q8ILY1)
Assay: Fluorescence-based high-throughput DNA polymerase assay (molecular beacon), primary screen and dose-response;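 on % inhibition ApPOL 90': test concentration in µM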;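 on % inhibition apPOL 180': test concentration in µM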
Assay type: biochemical
In short: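 Single-point screening used 10 µM compound with 20 nM polymerase, 20 nM hairpin substrate and 6 µM dNTPs for 90 min at 25 °C. Confirmatory titrations (2.5–80 µM) followed fluorescence at three times, and IC50 was derived from a fit including a cooperativity term n.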

Sequence of P. falciparum apicoplast DNA polymerase (Pf-apPOL) (Q8ILY1 entry or part of it): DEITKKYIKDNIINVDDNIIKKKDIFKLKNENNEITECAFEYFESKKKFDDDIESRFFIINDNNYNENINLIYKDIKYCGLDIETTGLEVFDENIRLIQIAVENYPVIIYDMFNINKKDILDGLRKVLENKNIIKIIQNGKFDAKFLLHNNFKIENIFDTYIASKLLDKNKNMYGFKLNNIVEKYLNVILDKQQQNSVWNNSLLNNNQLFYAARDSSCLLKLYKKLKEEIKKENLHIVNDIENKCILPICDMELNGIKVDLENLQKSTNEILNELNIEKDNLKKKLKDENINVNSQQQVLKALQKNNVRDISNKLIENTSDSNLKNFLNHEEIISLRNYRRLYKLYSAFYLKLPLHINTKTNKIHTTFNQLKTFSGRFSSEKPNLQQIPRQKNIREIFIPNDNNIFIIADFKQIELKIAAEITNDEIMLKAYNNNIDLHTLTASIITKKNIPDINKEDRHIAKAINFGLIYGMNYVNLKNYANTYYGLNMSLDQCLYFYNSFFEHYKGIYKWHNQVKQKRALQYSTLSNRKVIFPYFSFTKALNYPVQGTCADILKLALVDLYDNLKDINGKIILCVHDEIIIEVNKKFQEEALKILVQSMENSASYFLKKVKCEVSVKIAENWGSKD

## CCN1C(=O)C(=Cc2cccc(OC)c2O)SC1=S [Molecule 78, CCN1C(=S)SC(=Cc2cccc(c2O)OC)C1=O]
DRC-1; 10'; concentration 2.5
  % inhibition Apo pol 10': -5.558%
DRC-1; 10'; concentration 5
  % inhibition Apo pol 10': -7.622%
DRC-1; 10'; concentration 10
  % inhibition Apo pol 10': -2.049%
DRC-1; 10'; concentration 20
  % inhibition Apo pol 10': 2.662%
DRC-1; 10'; concentration 40
  % inhibition Apo pol 10': 14.6723%
DRC-1; 10'; concentration 80
  % inhibition Apo pol 10': 44.8696%
DRC-1; 90'; concentration 2.5
  % inhibition Apol 90': -2.637%
DRC-1; 90'; concentration 5
  % inhibition Apol 90': -1.279%
DRC-1; 90'; concentration 10
  % inhibition Apol 90': 7.892%
DRC-1; 90'; concentration 20
  % inhibition Apol 90': 13.9946%
DRC-1; 90'; concentration 40
  % inhibition Apol 90': 28.6027%
DRC-1; 90'; concentration 80
  % inhibition Apol 90': 61.7186%
DRC-1; 180'; concentration 2.5
  % inhibition apPOL 180': 5.183%
DRC-1; 180'; concentration 5
  % inhibition apPOL 180': 11.9919%
DRC-1; 180'; concentration 10
  % inhibition apPOL 180': 27.7441%
DRC-1; 180'; concentration 20
  % inhibition apPOL 180': 33.831%
DRC-1; 180'; concentration 40
  % inhibition apPOL 180': 51.4318%
DRC-1; 180'; concentration 80
  % inhibition apPOL 180': 79.6969%
DRC-2, 5', concentration 2.5 (unit not given)
  % inhibition Apo pol 5': 8%
DRC-2, 90', concentration 20 (unit not given)
  % inhibition ApPOL 90': 8%
DRC-2; 5'; concentration 2.5
  % inhibition Apo pol 5': 8%
DRC-2; 5'; concentration 5
  % inhibition Apo pol 5': 3.24%
DRC-2; 5'; concentration 10
  % inhibition Apo pol 5': 14%
DRC-2; 5'; concentration 20
  % inhibition Apo pol 5': 21%
DRC-2; 5'; concentration 40
  % inhibition Apo pol 5': 38%
DRC-2; 5'; concentration 80
  % inhibition Apo pol 5': 40%
DRC-2; 40'; concentration 2.5
  % inhibition Apol 40': 2.6%
DRC-2; 40'; concentration 5
  % inhibition Apol 40': -11%
DRC-2; 40'; concentration 10
  % inhibition Apol 40': 9%
DRC-2; 40'; concentration 20
  % inhibition Apol 40': 12%
DRC-2; 40'; concentration 40
  % inhibition Apol 40': 39%
DRC-2; 40'; concentration 80
  % inhibition Apol 40': 41%
DRC-2; 90'; concentration 2.5
  % inhibition ApPOL 90': -1.1%
DRC-2; 90'; concentration 5
  % inhibition ApPOL 90': -22%
DRC-2; 90'; concentration 10
  % inhibition ApPOL 90': 5.68%
DRC-2; 90'; concentration 20
  % inhibition ApPOL 90': 8%
DRC-2; 90'; concentration 40
  % inhibition ApPOL 90': 35%
DRC-2; 90'; concentration 80
  % inhibition ApPOL 90': 36%
DRC-2; 180'; concentration 2.5
  % inhibition apPOL 180': -5.52%
DRC-2; 180'; concentration 5
  % inhibition apPOL 180': -102%
DRC-2; 180'; concentration 10
  % inhibition apPOL 180': -2.72%
DRC-2; 180'; concentration 20
  % inhibition apPOL 180': -1.34%
DRC-2; 180'; concentration 40
  % inhibition apPOL 180': 23%
DRC-2; 180'; concentration 80
  % inhibition apPOL 180': 25%
Primary screen value of the 186 hits; unit not given; 90 min, 10 µM
  DNA Pol: 43
Primary screen value, head "DNA Pol", unit not given; 90 min, 10 µM
  DNA Pol: 43

## CN(C)C=CC(=O)c1ccccn1 [Molecule 64, CN(C=CC(=O)c1ccccn1)C]
'DNA Pol'; screening value, unit not given; 90 min, 10 µM
  DNA Pol: 79
DRC-1; 10'; concentration 2.5
  % inhibition Apo pol 10': 5.279%
DRC-1; 10'; concentration 5
  % inhibition Apo pol 10': 16.5803%
DRC-1; 10'; concentration 10
  % inhibition Apo pol 10': 34.5693%
DRC-1; 10'; concentration 20
  % inhibition Apo pol 10': 50.9232%
DRC-1; 10'; concentration 40
  % inhibition Apo pol 10': 69.0219%
DRC-1; 10'; concentration 80
  % inhibition Apo pol 10': 79.1475%
DRC-1; 90'; concentration 2.5
  % inhibition Apol 90': 1.734%
DRC-1; 90'; concentration 5
  % inhibition Apol 90': 6.501%
DRC-1; 90'; concentration 10
  % inhibition Apol 90': 20.4436%
DRC-1; 90'; concentration 20
  % inhibition Apol 90': 33.6237%
DRC-1; 90'; concentration 40
  % inhibition Apol 90': 52.2034%
DRC-1; 90'; concentration 80
  % inhibition Apol 90': 65.606%
DRC-1; 180'; concentration 2.5
  % inhibition apPOL 180': -0.4261%
DRC-1; 180'; concentration 5
  % inhibition apPOL 180': -0.5089%
DRC-1; 180'; concentration 10
  % inhibition apPOL 180': 10.9691%
DRC-1; 180'; concentration 20
  % inhibition apPOL 180': 21.4909%
DRC-1; 180'; concentration 40
  % inhibition apPOL 180': 39.455%
DRC-1; 180'; concentration 80
  % inhibition apPOL 180': 54.1589%
DRC-2, 5', concentration 2.5
  % inhibition Apo pol 5': 10%
DRC-2, 5', concentration 5
  % inhibition Apo pol 5': 18%
DRC-2, 5', concentration 10
  % inhibition Apo pol 5': 34%
DRC-2, 5', concentration 20
  % inhibition Apo pol 5': 44%
DRC-2, 5', concentration 40
  % inhibition Apo pol 5': 50%
DRC-2, 5', concentration 80
  % inhibition Apo pol 5': 54%
DRC-2, 40', concentration 2.5
  % inhibition Apol 40': 6%
DRC-2, 40', concentration 5
  % inhibition Apol 40': 12%
DRC-2, 40', concentration 10
  % inhibition Apol 40': 27%
DRC-2, 40', concentration 20
  % inhibition Apol 40': 41%
DRC-2, 40', concentration 40
  % inhibition Apol 40': 53%
DRC-2, 40', concentration 80
  % inhibition Apol 40': 64%
DRC-2, 90', concentration 2.5
  % inhibition ApPOL 90': 0.656%
DRC-2, 90', concentration 5
  % inhibition ApPOL 90': 7%
DRC-2, 90', concentration 10
  % inhibition ApPOL 90': 21%
DRC-2, 90', concentration 20
  % inhibition ApPOL 90': 36%
DRC-2, 90', concentration 40
  % inhibition ApPOL 90': 50%
DRC-2, 90', concentration 80
  % inhibition ApPOL 90': 65%
DRC-2, 180', concentration 2.5
  % inhibition apPOL 180': -5%
DRC-2, 180', concentration 5
  % inhibition apPOL 180': -1.23%
DRC-2, 180', concentration 10
  % inhibition apPOL 180': 9%
DRC-2, 180', concentration 20
  % inhibition apPOL 180': 23%
DRC-2, 180', concentration 40
  % inhibition apPOL 180': 42%
DRC-2, 180', concentration 80
  % inhibition apPOL 180': 63%
Conc 40 (unit not given); 5'; DRC-2
  % inhibition Apo pol 5': 50%
Conc 40 (unit not given); 90'; DRC-2
  % inhibition ApPOL 90': 50%
Primary screen hit value, DNA Pol (186 hits); 90 min, 10 µM
  DNA Pol: 79

## Cc1nc2c(oc3nc(-c4ccco4)c4c(c32)CC(C)(C)OC4)c(-c2ccccc2)c1C(=O)O [Molecule 86]
Supplemental file 2, sheet IC50 nontoxic compounds; Pf-apPOL
  IC50: 7.41 µM
